Measurements as given in patent US20120283096A1, “AGENT FOR IMPROVING PLANT GROWTH, SEEDS, AND METHOD FOR IMPROVING PLANT GROWTH” (Incorporated Administrative Agency National Agricu lture …, priority 2010, published 2012).

Assays:
decay of paddy seeds = assay: Decay-inhibiting effect in tank farming without soil (Example 3); details: seeds covered with substance, soaked two weeks in water at 30° C.
Procedure: (§1) The decay-inhibiting effect of molybdenum-containing substances in tank farming without soil was examined.
(§2) The possibility of growth and the inhibition of decay were determined in the same manner as above.

paddy rice [1] = assay: Seedling establishment of coated paddy seeds planted in a paddy field (Example 4-5, FIG. 22); type: in vivo; details: dry seeds coated with clay plus 0.1 mmol/g molybdenum; kept submerged, about one month after seeding; versus WITHOUT MATERIAL and oxygen generating agent (Cal)
Procedure: Dry paddy seeds (branded as Hinohikari) were prepared.
Separately, dry seeds (WITHOUT MATERIAL) coated solely with clay containing no molybdenum were also prepared. Furthermore, dry seeds (Cal) coated with an oxygen generating agent (Calper Powder 16, Hodogaya UPL Co., Ltd.) the same weight per dry seeds were also prepared. Calper Powder 16 is an oxygen generating agent composed mainly of calcium peroxide.
These dry seeds were planted in puddled soil in a paddy field in Chikugo City, Fukuoka Prefecture, by using a simultaneous puddling and planting point sowing machine. By preparing the seeds as described above and planting them by using a point sowing machine, the amount of seeding per unit area of the paddy field can be substantially uniformed. It should be noted that prior to soil puddling, 4 g/m^2 of ammonium sulfate as nitrogen and potassium sulfate containing potassium equivalent to 8 g/m^2 as potassium oxide had been applied to the paddy field. After seeding, the seeds were kept submerged without draining the water.

paddy rice [2] = assay: Seedling establishment of coated paddy seeds in submerged soil containers (Examples 4-1 to 4-4b, FIGS. 11, 14-19c); type: in vivo
Procedure: The germinated paddy seeds were soaked for one minute in a tenfold diluted solution of a commercially available laundry starch (manufactured by Rocket Soap Co., Ltd.; My Laundry Starch) containing approximately a little less than 10% by weight of polyvinyl alcohol, centrifuged at 1000 rpm for removal of the extra solution, and, immediately after that, lightly covered with different amounts of ammonium molybdophosphate, whereby seeds with different amounts of ammonium molybdophosphate were prepared.
It should also be noted that in each of FIGS. 14 through 15b, the horizontal axis represents the number of moles (mmol) of molybdenum or tungsten that adhered per gram of dry seed. In each of FIGS. 14 through 15b, the dots correspond to the numbers of moles of 0, 0.02, 0.05, 0.1, 0.2, 0.5, 1, and 2 mmol, starting from the left.
It should be noted that in each of FIGS. 16 through 18, the horizontal axis represents the number of moles (mmol) of molybdenum that adhered per gram of dry seed. In each of FIGS. 16 through 18, the dots correspond to the numbers of moles of 0, 0.02, 0.05, 0.1, 0.2, 0.5, 1, and 2 mmol, starting from the left.
It should be noted that in FIG. 19a, the horizontal axis represents the number of moles (mmol) of molybdenum that adhered per gram of dry seed. In FIG. 19a, the dots correspond to the numbers of moles of 0, 0.02, 0.05, 0.1, 0.2, 0.5, 1, and 2 mmol, starting from the left.
The resulting seeds were allowed to spend time in a sufficiently wet condition so that the iron rusted, and then allowed to further spend overnight. […] Six containers were allotted for each condition, and the proportion of seedling establishment and the standard error were examined. It should be noted that in FIG. 19b, the horizontal axis represents the number of moles (mmol) of molybdenum that adhered per gram of dry seed. In FIG. 19b, the dots correspond to the numbers of moles of 0, 0.02, 0.05, 0.1, 0.2, 0.5, 1, and 2 mmol, starting from the left.
Six containers were allotted for each condition, and the proportion of seedling establishment and the standard error were examined. It should be noted that in FIG. 19c, the horizontal axis represents the actual weight ratios of 25 wt % calcium peroxide that adhered with respect to the weight of dry seed. In FIG. 19c, the dots correspond to the actual weight ratios of 25 wt % calcium peroxide of 0, 0.01, 0.02, 0.05, 0.1, 0.2, 0.5, and 1 time, starting from the left.

barley = assay: Seedling establishment of barley seeds in humid soil (Example 6-1, FIG. 20a); type: in vivo; details: 0.01 mmol to 0.5 mmol molybdenum per gram of dry seed, 20° C., after two weeks
Procedure: (§3) As in Example 4-1, ammonium sulfate in an equivalent amount of 10 g/m^2 in terms of nitrogen and potassium chloride equivalent to 5 g/m^2 of potassium as potassium oxide were added as a solution to paddy humid soil in terms of 100 kg/m^2 of dry soil with a soil-to-liquid ratio of 0.7. The soil was placed into each container (in the shape of a cylinder approximately 7 cm in diameter) in an amount equivalent to 100 g of dry soil. The soil surface was flattened by giving it a slight press with a flat plate. Then, the soil was left at rest for one day at 4° C. […] The seeds were then half-buried in the soil. After that, at a constant temperature of 20° C., the water level was kept by adding water to such an extent that the seeds were slightly covered with water. Six containers were allotted for each condition, and the proportion of seedling establishment (proportion of individual plants that survived) was measured after two weeks. It should be noted that in each of FIGS. 20a and 20b, the horizontal axis represents the number of moles (mmol) of molybdenum that adhered per gram of dry seed. In each of FIGS. 20a and 20b, the dots correspond to the numbers of moles of 0, 0.01, 0.02, 0.05, 0.1, 0.2, and 0.5 mmol, starting from the left. […]

soybean = assay: Seedling establishment of soybean seeds submerged for two days (Example 6a-1, FIG. 20e); type: in vivo; details: 0.01 mmol to 0.5 mmol molybdenum per gram of dry seed, 25° C., versus untreated seeds
Procedure: Soil was prepared in the same manner as in Example 6-1. Next, soybean seeds (branded as Fukuyutaka) not subjected to treatment such as soaking in advance were soaked for one minute in a tenfold diluted solution of a commercially available laundry starch (manufactured by Rocket Soap Co., Ltd.; My Laundry Starch) containing approximately a little less than 10% by weight of polyvinyl alcohol. Then, the seeds were spin-dried for thirty seconds in a commercially available washing machine for removal of the extra water. […] These seeds were buried so that the upper edge of each seed was at the same height as the soil surface. In an artificially-lit (amount of light 0.4 mmol/m^2/s, lit for twelve hours per day) room at 25° C., water was added immediately after seeding so that the surface water was 15 mm high. After two days, the surface water was sucked up with a pipette for removal. Six containers were allotted for each condition, and the proportion of seedling establishment (proportion of individual plants that survived) was measured two weeks after seeding. It should be noted that in FIG. 20e, the horizontal axis represents the number of moles (mmol) of molybdenum that adhered per gram of dry seed. In FIG. 20e, the dots correspond to the numbers of moles of 0 (UNTREATED), 0.01, 0.02, 0.05, 0.1, 0.2, and 0.5 mmol, starting from the left. […]

paddy seeds = assay: Possibility of growth of paddy seeds in tank farming without soil (Example 3); details: in vivo
Procedure: as §1, §2

wheat = assay: Seedling establishment of wheat seeds in humid soil (Example 6-1, FIG. 20b); type: in vivo; details: 0.01 mmol to 0.5 mmol molybdenum per gram of dry seed, 20° C., after two weeks
Procedure: as §3

sulfide ion generation = assay: Blackening (ferric sulfide) of areas around paddy seeds versus sulfate ion concentration (FIG. 2); details: unsterilized soil, 30° C., one week after seeding, supernatant concentration
Procedure: In the same manner as above, ammonium sulfate was applied to samples of unsterilized soil in amounts of 0, 0.75, 1.5, and 3 mol/m^2, respectively, and the samples of unsterilized soil were placed at rest at a constant temperature of 30° C. The supernatant liquids obtained after shaking the samples of soil thus adjusted had sulfate ion concentrations shown in FIG. 2. However, since methylene blue decolorizes in a reduced state, methylene blue weighing 0.1% of dry soil was added to each sample of soil so that a reduced state of the soil could be detected. […] It should be noted that methylene blue is known to decolorize at an oxidation-reduction potential of 0.05 V or lower with a pH of approximately 6. […] Therefore, it is judged that in this experimental environment, an oxidation-reduction potential as normalized with a pH of 7 is at least temporarily 0 mV or lower.

paddy rice [3] = assay: Effect of sulfate ions in paddy soil on seedling establishment (Example 1-1, FIG. 1); type: in vivo
Procedure: The effect of concentrations of sulfate ions, which serve as a substrate for sulfide ions, in the soil solution on the percentage of seedling establishment were examined for each of the following cases: unsterilized paddy soil placed at a constant temperature of 20° C.; unsterilized paddy soil placed at a constant temperature of 30° C., unsterilized paddy soil placed in an outdoor location (at a mean temperature of 25.4° C. for the duration of examination); and sterilized paddy soil placed at a constant temperature of 20° C.
First, ammonium sulfate solutions in different concentrations were added to samples of paddy humid soil (obtained from a paddy field in Chikugo City, Fukuoka Prefecture, Japan; refrigerated in the form of humid soil until just before its use) with a soil-to-liquid ratio of 1:1.5, so that the resulting supernatant liquids above the samples of soil thus adjusted had varying concentrations of sulfate ions. The amounts of ammonium sulfate added to the samples of soil were equivalent to 0, 2, 4, 7, 10, 15, and 20 g/m^2 in terms of nitrogen, respectively, on the condition that the weight of dry soil is 100 kg/m^2. At the same time as ammonium sulfate, potassium in an amount of 5 g/m^2 in terms of potassium oxide was added as potassium chloride. Before the addition of the solutions to the samples of soil, some of the soil had been sterilized by being autoclaved for one hour at 121° C.
Each of the samples of soil thus adjusted was placed into a container (in the shape of a cylinder approximately 7 cm in diameter) in an amount equivalent to 120 g of dry soil, shaken for approximately one hour, and left at rest for two days at 4° C. On this condition, the resulting soil layer was approximately 4 cm thick and the resulting water layer above the soil surface was approximately 1 cm thick. Paddy rice seeds (branded as Hinohikari) were sterilized by being soaked in 70% ethanol for ten minutes and then in a fivefold diluted solution of sodium hypochlorite (purchased from Wako Pure Chemical Industries, Ltd.) for ten minutes. The paddy rice seeds were then slightly germinated by being soaked in water at 10° C. for five days and then in water at 30° C. for two days. The germinated unhusked rice thus obtained was used in the following testing.
Nine paddy rice seeds per container were planted at a depth of 15 mm at intervals of approximately 2 cm in each of the samples of soil thus adjusted, and the seed holes were closed by lightly shaking the sample of soil. The samples of unsterilized soil were left at rest at a constant temperature of 20° C. or 30° C., and the samples of sterilized soil were left at a constant temperature of 20° C. in incubators in which fluorescent lights were on for twelve hours per day. […]

SMILES	Inhibition of decay, Amount of molybdenum or tungsten added to seed (decay of paddy seeds) [mmol/g]	seedling establishment (paddy rice [1])	molybdenum amount leading to improvements in seedling establishment (paddy rice [2]; dry seeds coated with mixture with reduced iron (half the weight of dry seeds), 30° C., FIG. 19b) [mmol/g]	proportion of seedling establishment (paddy rice [2]; dry seeds, mixture of 0.1 mmol/g molybdenum oxide and 25 wt % calcium peroxide at 0.1 or less time the weight of dry seed, 30° C.) [%]	proportion of seedling establishment (paddy rice [2]; mixture of 0.1 mmol/g molybdenum oxide and 25 wt % calcium peroxide at 0.2 to 0.5 time the weight of dry seed, versus absence of molybdenum oxide)	proportion of seedling establishment (barley)	proportion of seedling establishment (soybean)	Possibility of growth, Amount of molybdenum or tungsten added to seed (paddy seeds) [mmol/g]	proportion of seedling establishment (wheat)	sulfate ion concentration at which a blackened portion (ferric sulfide) appears around the seed (sulfide ion generation) [mM]	seedling establishment (paddy rice [3]; sterilized soil, 20° C., regardless of sulfate ion concentration)	seedling establishment (paddy rice [3]; unsterilized soil, constant 20° C., sulfate ion concentration higher than 2 mM, after 21 days)	proportion of seedling establishment (paddy rice [3]; unsterilized soil, constant 30° C. or outdoor, sulfate ion concentration higher than 3 mM, after 21 days) [%]	proportion of seedling establishment (paddy rice [3]; unsterilized soil, sulfate ion concentration of 1 mM, regardless of the conditions (20° C., 30° C., outdoor), after 21 days)
[O]=[Mo](=[O])=[O] [Molybdenum oxide, Molybdenum oxide (VI)]	<0.01	obvious improvements in seedling establishment	≥ 0.5	≥ 40	higher proportion of seedling establishment	improvements in proportion of seedling establishment	improvements in proportion of seedling establishment	0.07	improvements in proportion of seedling establishment					
N.N.O=S(=O)(O)O [sulfate ions, ammonium sulfate]										≥ 0.91	no decrease in seedling establishment	substantially no seedling establishment	≤ 10	drastic decreases in proportion of seedling establishment
